Patent publication US6750224B1, “Antibacterial optically pure benzoquinolizine carboxylic acids, processes, compositions and methods of treatment” (priority 1999, dated 2004)
Values after ≈ are worked out from the molar mass of the structure shown. Where two headings read alike, the source gives them in different places.

Legend:
[1] = system: Mupirocin-resistant Staph STA-34; experiment: In-vitro antimicrobial activity test (MIC, NCCLS); format: cell-based, Staphylococcus aureus
Description: (§1) The test method was in accordance with the standard NCCLS protocol.

[2] = system: MRSA STA-4; experiment: In-vitro antimicrobial activity test (MIC, NCCLS); format: cell-based, Staphylococcus aureus
Description: as §1

[3] = system: Staphylococcus aureus ATCC 25923; experiment: In-vitro antimicrobial activity test (MIC, NCCLS); format: cell-based
Description: as §1

[4] = system: Chryseobacterium meningosepticum; experiment: In-vitro antimicrobial activity test (MIC, NCCLS); format: cell-based
Description: as §1

[5] = system: Enterococcus faecalis ATCC 29212; experiment: In-vitro antimicrobial activity test (MIC, NCCLS); format: cell-based
Description: as §1

[6] = system: Propioni bacterium acnes; experiment: In-vitro antimicrobial activity test (MIC, NCCLS); format: cell-based
Description: as §1

[7] = system: Mycobacterium avium; experiment: In-vitro antimicrobial activity test (MIC, NCCLS); format: cell-based
Description: as §1

[8] = system: Enterococcus faecium; experiment: In-vitro antimicrobial activity test (MIC, NCCLS); format: cell-based
Description: as §1

[9] = system: Escherichia coli ATCC 25922; experiment: In-vitro antimicrobial activity test (MIC, NCCLS); format: cell-based
Description: as §1

[10] = system: Mycobacterium tuberculosis ATCC 27294; experiment: In-vitro antimicrobial activity test (MIC, NCCLS); format: cell-based
Description: as §1

[11] = system: Bacteroides fragilis; experiment: In-vitro antimicrobial activity test (MIC, NCCLS); format: cell-based
Description: as §1

[12] = system: Mycobacterium intracellulare; experiment: In-vitro antimicrobial activity test (MIC, NCCLS); format: cell-based
Description: as §1

[13] = system: Serratia marcescens; experiment: In-vitro antimicrobial activity test (MIC, NCCLS); format: cell-based
Description: as §1

[14] = system: Haemophilus influenzae; experiment: In-vitro antimicrobial activity test (MIC, NCCLS); format: cell-based
Description: as §1

[15] = system: Streptococcus pyogenes; experiment: In-vitro antimicrobial activity test (MIC, NCCLS); format: cell-based
Description: as §1

[16] = system: Viridans group Streptococci; experiment: In-vitro antimicrobial activity test (MIC, NCCLS); format: cell-based
Description: as §1

[17] = system: Pseudomonas aeruginosa; experiment: In-vitro antimicrobial activity test (MIC, NCCLS); format: cell-based
Description: as §1

[18] = system: Corynebacterium jeikeium; experiment: In-vitro antimicrobial activity test (MIC, NCCLS); format: cell-based
Description: as §1

[19] = system: Streptococcus pneumoniae ATCC 6303; experiment: In-vitro antimicrobial activity test (MIC, NCCLS); format: cell-based
Description: as §1

[20] = system: MRSE STE-22; experiment: In-vitro antimicrobial activity test (MIC, NCCLS); format: cell-based, Staphylococcus epidermidis
Description: as §1

[21] = Acute intravenous toxicity in mice; conditions: mouse, in vivo, iv
[22] = in vivo; parameters: species or system Swiss mice; conditions: Swiss, mouse, po, 30 mg/kg
Description: The blood levels of RS-(±)-Nadifloxacin and S-(−)-Nadifloxacin administered orally to Swiss mice at a dose of 30mg/kg are shown in Table 3 with respect to the AUC (μg/ml.hr), monitored from 15 minutes to 4 hours.

[23] = system: P. vulgaris 66; experiment: Effect of pH on potency of fluoroquinolones (MIC at pH 5.5 and 7.0); format: cell-based; conditions: MIC pH 7 vs pH 5.5
Description: (§2) The test method was in accordance with the standard NCCLS protocol employing test media adjusted at pH 5.5 and 7.0.

[24] = system: E. coli 2015; experiment: as above; format: cell-based; conditions: MIC pH 7 vs pH 5.5
Description: as §2

[25] = system: P. rettgeri N 1764; experiment: as above; format: cell-based; conditions: MIC pH 7 vs pH 5.5
Description: as §2

[26] = system: P. mirabilis 37; experiment: as above; format: cell-based; conditions: MIC pH 7 vs pH 5.5
Description: as §2

[27] = system: Acinetobacter 3109; experiment: as above; format: cell-based; conditions: MIC pH 7 vs pH 5.5
Description: as §2

[28] = system: S. aureus 1199-B; experiment: as above; format: cell-based; conditions: MIC pH 7 vs pH 5.5
Description: as §2

[29] = system: Klebsiella 24037; experiment: as above; format: cell-based; conditions: MIC pH 7 vs pH 5.5
Description: as §2

[30] = system: E. coli 25922; experiment: as above; format: cell-based; conditions: MIC pH 7 vs pH 5.5
Description: as §2

[31] = system: Ps. Aeruginosa; experiment: as above; format: cell-based; conditions: MIC pH 7 vs pH 5.5
Description: as §2

[32] = system: S. aureus 25923; experiment: as above; format: cell-based; conditions: MIC pH 7 vs pH 5.5
Description: as §2

[33] = system: E. faecalis; experiment: as above; format: cell-based; conditions: MIC pH 7 vs pH 5.5
Description: as §2

[34] = system: Serratia marcescens 2702; experiment: as above; format: cell-based; conditions: MIC pH 7 vs pH 5.5
Description: as §2

[35] = system: S.aureus strain bearing Nor A efflux pump; format: cell-based; conditions: Nor A efflux pump strain vs strain devoid of efflux pump
Description: Using this set of MIC values, % loss in potency due to efflux was calculated for each of the fluoroquinolone in Table 5

[36] = Chemical stability under heating (HPLC); format: physicochemical
Description: The anhydride and hydrates were each introduced into a glass vial and maintained at 70° C. Thus the thermal decomposition with elapsed time was analysed by HPLC and the results thus obtained are described in Table 8

[37] = Equilibrium moisture content determination at several relative humidities; format: physicochemical; conditions: Karl Fischer
Description: Silica (anhydrous) and three saturated solutions of electrolytes prepared by dissolving the respective salts in water were each introduced into different desiccators to control the inner relative humidity to a specific value as represented in the following Table 7. Then, the equilibrium moisture contents of S-(−)-9-fluoro-6,7-dihydro-8-(4-hydroxypiperidin-1-yl)-5-methyl-1-oxo-1H,5H-benzo[i,j]quinolizine-2-carboxylic acid anhydrate and S-(−)-9-fluoro-6,7-dihydro-8-(4-hydroxypiperidin-1-yl)-5-methyl-1-oxo-1H,5H-benzo[i,j]quinolizine-2-carboxylic acid 0.2 hydrate prepared in Examples 1 and 2 respectively were determined at several relative humidities.
Specifically, 1 g of the sample was spread on a pre-weighed petridish and the total weight was accurately measured, then both the samples were placed in each desiccator of Table 8 The dessicators were allowed to stand at normal temperature for at least 3 days and the weight was measured agingly over this period. The weight changes were tabulated. At the end of 3 days all samples were taken to be weighed. The moisture content of each sample was determined by Karl Fischer analysis. Equilibrium moisture content at each relative humidity is represented in FIG. 1 (anhydrate) and FIG. 2 (0.2 hydrate).

Which MIC [1] does the source give for `CC1CCc2c(N3CCC(O)CC3)c(F)cc3c(=O)c(C(=O)O)cn1c23` (racemic) [RS-(±)-Nadifloxacin, (±)-9-fluoro-8-(4-hydroxypiperidin-1-yl)-5-methyl-6,7-dihydro-1-oxo-1H-5H-benzo[i,j]quinolizine-2-carboxylic acid] here?
Its MIC is 1.56 µg/mL (≈ 4.33 µM).

And the MIC [2]?
The MIC was 0.8 µg/mL (≈ 2.22 µM).

And the MIC [3]?
The MIC was 0.05 µg/mL (≈ 0.139 µM).

What about the MIC [4] of the same molecule?
The MIC was 1.56 µg/mL (≈ 4.33 µM).

What about the MIC [5] of the same molecule?
Its MIC is 0.4 µg/mL (≈ 1.11 µM).

And the MIC [6]?
Its MIC is 0.2 µg/mL (≈ 0.555 µM).

What about the MIC [7] of the same molecule?
Its MIC is 6.25 µg/mL (≈ 17.3 µM).

And the MIC [8]?
Its MIC is 0.8 µg/mL (≈ 2.22 µM).

What about the MIC [9] of the same molecule?
The MIC was 0.8 µg/mL (≈ 2.22 µM).

And the MIC [10]?
Its MIC is 1.56 µg/mL (≈ 4.33 µM).

And the MIC [11]?
The MIC was 3.12 µg/mL (≈ 8.66 µM).

What about the MIC [12] of the same molecule?
Its MIC is 3.12 µg/mL (≈ 8.66 µM).

What about the MIC [13] of the same molecule?
Its MIC is 1.56 µg/mL (≈ 4.33 µM).

And the MIC [14]?
The MIC was 0.05 µg/mL (≈ 0.139 µM).

What about the MIC [15] of the same molecule?
Its MIC is 0.4 µg/mL (≈ 1.11 µM).

What about the MIC [16] of the same molecule?
The MIC was 0.4 µg/mL (≈ 1.11 µM).

And the MIC [17]?
Its MIC is 3.12 µg/mL (≈ 8.66 µM).

What about the MIC [18] of the same molecule?
The MIC was 0.2 µg/mL (≈ 0.555 µM).

What about the MIC [19] of the same molecule?
Its MIC is 0.4 µg/mL (≈ 1.11 µM).

And the MIC [20]?
The MIC was 1.56 µg/mL (≈ 4.33 µM).

What about the LD50 [21] of the same molecule?
Its LD50 is 311 mg/kg.

And the AUC [22]?
The AUC was 16900 ng·h/mL.

For `O=C(O)c1cn(C2CC2)c2cc(N3CCNCC3)c(F)cc2c1=O` [Ciprofloxacin], which “% change in potency at pH 5.5, loss (−)/gain (+)” value (shortened to “% change … loss (−)/gain (+)”) [23] is on record?
Its value is −96%.

And the “% change … loss (−)/gain (+)” value [24]?
The value was −94%.

What about the “% change … loss (−)/gain (+)” value [25] of the same molecule?
The value was −94%.

And the “% change … loss (−)/gain (+)” value [26]?
Its value is −96%.

And the “% change … loss (−)/gain (+)” value [27]?
Its value is −97%.

What about the “% change … loss (−)/gain (+)” value [28] of the same molecule?
The value was −75%.

What about the “% change … loss (−)/gain (+)” value [29] of the same molecule?
Its value is −97%.

And the “% change … loss (−)/gain (+)” value [30]?
The value was −97.5%.

What about the “% change … loss (−)/gain (+)” value [31] of the same molecule?
The value was −87%.

And the “% change … loss (−)/gain (+)” value [32]?
Its value is −75%.

What about the “% change … loss (−)/gain (+)” value [33] of the same molecule?
The value was −87.5%.

What about the “% change … loss (−)/gain (+)” value [34] of the same molecule?
Its value is −99%.

For `NC1CCN(c2c(F)cc3c(=O)c(C(=O)O)cn(C4CC4)c3c2Cl)C1` (centres unmarked) [Clinafloxacin], which “% loss in potency for S. aureus bearing Efflux pump” value [35] is on record?
Its value is 87.5%.

Which “Thermal stability with elapsed time at 70° C.” value (“Thermal stability” for short) ([36]; 1 week, HPLC) does the source give for `C[C@H]1CCc2c(N3CCC(O)CC3)c(F)cc3c(=O)c(C(=O)O)cn1c23` [Example 1, S-(−)-9-fluoro-6,7-dihydro-8-(4-hydroxypiperidin-1-yl)-5-methyl-1-oxo-1H,5H-benzo[i,j]quinolizine-2-carboxylic acid anhydrate] here?
Its value is 98.7%.

What about the “Thermal stability” value ([36]; 2 week, HPLC) of the same molecule?
The value was 98.6%.

What about the “Thermal stability” value ([36]; Initial, HPLC) of the same molecule?
The value was 98.9%.

What about the equilibrium moisture content ([37]; relative humidity 20% to 58%) of the same molecule?
Its equilibrium moisture content is “around 0.1%”.

What about the equilibrium moisture content ([37]; relative humidity 75% to 95%) of the same molecule?
Its equilibrium moisture content is “around 1%”.

Which results are given for `C[C@H]1CCc2c(N3CCC(O)CC3)c(F)cc3c(=O)c(C(=O)O)cn1c23.O` [Example 2, S-(−)-9-fluoro-6,7-dihydro-8-(4-hydroxypiperidin-1-yl)-5-methyl-1-oxo-1H,5H-benzo[i,j]quinolizine-2-carboxylic acid 0.2 hydrate]?
Thermal stability with elapsed time at 70° C. [36]: 98.7%; chemical stability at 70° C., in words [36]: same degree of chemical stability as the anhydrate; equilibrium moisture content ([37]; relative humidity 20% to 95%): around 1%

What does the source list for `C[C@H]1CCc2c(N3CCC(O)CC3)c(F)cc3c(=O)c(C(=O)O)cn1c23.C[C@H]1CCc2c(N3CCC(O)CC3)c(F)cc3c(=O)c(C(=O)O)cn1c23.O` [Example 3, S-(−)-9-fluoro-6,7-dihydro-8-(4-hydroxypiperidin-1-yl)-5-methyl-1-oxo-1H,5H-benzo[i,j]quinolizine-2-carboxylic acid 0.5 hydrate]?
Thermal stability with elapsed time at 70° C. [36]: 98.1%; chemical stability at 70° C., in words [36]: decompose with time

For `C[C@H]1CCc2c(N3CCC(O)CC3)c(F)cc3c(=O)c(C(=O)O)cn1c23.O` [Example 4, S-(−)-9-fluoro-6,7-dihydro-8-(4-hydroxypiperidin-1-yl)-5-methyl-1-oxo-1H,5H-benzo[i,j]quinolizine-2-carboxylic acid 0.75 hydrate], which “Thermal stability” value [36] is on record?
The value was 98.3%.

And the “chemical stability at 70° C., in words” value [36]?
Its value is “decompose with time”.
